Data reported in patent US9512107B2, “Therapeutically active compositions and their methods of use” (Agios Pharmaceuticals, Inc., priority 2012, dated 2016).
Where a chain is given by its changes, count along the chain named. Read-outs that look alike come from different tables or passages of the source.

Columns and labels:
[1] = system: U87MG pLVX-IDH2 R140Q-neo cells; experiment: U87MG pLVX-IDH2 R140Q-neo cell based assay, 2-HG in media by LC-MS at 48 hours
How it was run: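 2-HG secreted into the medium was measured by LC-MS after 48 h of compound treatment (0.2% DMSO final) of U87MG pLVX-IDH2 R140Q-neo cells in DMEM/10% FBS. The same wells were assayed at 72 h by CellTiter-Glo luminescence for effects on growth.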

IDH2 R140Q = target: T1, IDH2 R140Q (Homo sapiens, UniProt P48735, R140Q); experiment: IDH2 R140Q enzymatic assay (cofactor depletion, similar format); type: biochemical; details: read-out: Enz R140Q
T1 sequence (P48735 40-452 R140Q): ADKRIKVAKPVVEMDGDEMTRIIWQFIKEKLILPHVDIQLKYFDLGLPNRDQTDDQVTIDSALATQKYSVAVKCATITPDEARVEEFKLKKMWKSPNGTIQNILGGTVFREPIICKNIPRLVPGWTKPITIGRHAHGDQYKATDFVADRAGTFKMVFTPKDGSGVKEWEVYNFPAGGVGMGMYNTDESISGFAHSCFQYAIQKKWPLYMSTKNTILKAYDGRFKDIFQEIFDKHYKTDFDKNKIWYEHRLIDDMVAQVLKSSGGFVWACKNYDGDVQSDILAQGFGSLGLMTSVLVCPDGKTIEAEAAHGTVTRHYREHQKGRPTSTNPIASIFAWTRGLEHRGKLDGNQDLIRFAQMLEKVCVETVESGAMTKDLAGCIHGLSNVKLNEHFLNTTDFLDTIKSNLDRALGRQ

IDH2 R172K = target: T2, IDH2 R172K (Homo sapiens, UniProt P48735, R172K); experiment: IDH2 R172K enzymatic assay (NADPH cofactor depletion, diaphorase/resazurin readout); type: biochemical; details: read-out: Enz R172K
T2 sequence (P48735 40-452 R172K): T1 sequence (P48735 40-452 R140Q) with Q101R, R133K
How it was run: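 Cofactor depletion format: enzyme + compound 1 h RT; add substrate mix (50 μM NADPH, 6.3 mM α-KG); react 1 h RT; quench with stop mix (36 μg/ml diaphorase, 60 μM resazurin); read resorufin fluorescence as residual NADPH.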

| IC50 ([1]; Homo sapiens, U-87 MG) [nM] | IC50 (IDH2 R140Q) [nM] | IC50 (IDH2 R172K) [nM] | IC50 [1] [nM] | SMILES |
| --- | --- | --- | --- | --- |
| < 100 | 100 to 1000 | < 100 |  | CC1(CNc2nc(Nc3ccnc(C(F)(F)F)c3)nc(-c3cccc(C(F)(F)F)n3)n2)CCCO1 (stereo not drawn) [Compound 531, N-(2-Methyl-tetrahydro-furan-2-ylmethyl)-6-(6-trifluoromethyl-pyridin-2-yl)-N′-(2-trifluoromethyl-pyridin-4-yl)-[1,3,5]triazine-2,4-diamine] |
| < 100 | 100 to 1000 | < 100 |  | CC1CC1Nc1nc(Nc2ccnc(C(F)(F)F)c2)nc(-c2cccc(C(F)(F)F)n2)n1 (stereo not drawn) [Compound 532, N-(2-Methyl-cyclopropyl)-6-(6-trifluoromethyl-pyridin-2-yl)-N′-(2-trifluoromethyl-pyridin-4-yl)-[1,3,5]triazine-2,4-diamine] |
| < 100 | 100 to 1000 | < 100 |  | CC1(Nc2nc(Nc3ccnc(C(F)(F)F)c3)nc(-c3cccc(C(F)(F)F)n3)n2)CC1 [Compound 533, N-(1-Methyl-cyclopropyl)-6-(6-trifluoromethyl-pyridin-2-yl)-N′-(2-trifluoromethyl-pyridin-4-yl)-[1,3,5]triazine-2,4-diamine] |
| < 100 | 100 to 1000 | 100 to 1000 |  | CC(C)Nc1nc(Nc2ccc(F)nc2)nc(-c2nccc(C(F)(F)F)n2)n1 [Compound 535, N-(6-Fluoro-pyridin-3-yl)-N′-isopropyl-6-(4-trifluoromethyl-pyrimidin-2-yl)-[1,3,5]triazine-2,4-diamine] |
| < 100 | 1000 to 10000 | 100 to 1000 |  | CC(C)Nc1nc(Nc2cncc(C(F)(F)F)c2)nc(-c2nccc(C(F)(F)F)n2)n1 [Compound 536, N-Isopropyl-N′-(5-trifluoromethyl-pyridin-3-yl)-6-(4-trifluoromethyl-pyrimidin-2-yl)-[1,3,5]triazine-2,4-diamine] |
| < 100 | 100 to 1000 | < 100 |  | CC(C)Nc1nc(Nc2ccnc(F)c2)nc(-c2nccc(C(F)(F)F)n2)n1 [Compound 537, N-(2-Fluoro-pyridin-4-yl)-N′-isopropyl-6-(4-trifluoromethyl-pyrimidin-2-yl)-[1,3,5]triazine-2,4-diamine] |
|  | 1000 to 10000 | 100 to 1000 | < 100 | CC(C)Nc1nc(Nc2ccnc(F)c2)nc(-c2nccc(C(F)(F)F)n2)n1 [Compound 538] |
| < 100 | 100 to 1000 | 100 to 1000 |  | OC1(CNc2nc(Nc3cc(F)cc(F)c3)nc(-c3cccc(C(F)(F)F)n3)n2)CC1 [Compound 541, 1-{[4-(3,5-Difluoro-phenylamino)-6-(6-trifluoromethyl-pyridin-2-yl)-[1,3,5]triazin-2-ylamino]-methyl}-cyclopropanol] |
| < 100 | 100 to 1000 | < 100 |  | CC(C)Nc1nc(Nc2cccc(C(C)(C)O)c2)nc(-c2cccc(C(F)(F)F)n2)n1 [Compound 542, 2-{3-[4-Isopropylamino-6-(6-trifluoromethyl-pyridin-2-yl)-[1,3,5]triazin-2-ylamino]-phenyl}-propan-2-ol] |
| < 100 | 100 to 1000 | 100 to 1000 |  | Cn1cc(Nc2nc(Nc3ccnc(C(F)(F)F)c3)nc(-c3cccc(C(F)(F)F)n3)n2)cn1 [Compound 543, N-(1-Methyl-1H-pyrazol-4-yl)-6-(6-trifluoromethyl-pyridin-2-yl)-N′-(2-trifluoromethyl-pyridin-4-yl)-[1,3,5]triazine-2,4-diamine] |
| < 100 | 100 to 1000 | 100 to 1000 |  | Cn1nccc1Nc1nc(Nc2ccnc(C(F)(F)F)c2)nc(-c2cccc(C(F)(F)F)n2)n1 [Compound 544, N-(2-Methyl-2H-pyrazol-3-yl)-6-(6-trifluoromethyl-pyridin-2-yl)-N′-(2-trifluoromethyl-pyridin-4-yl)-[1,3,5]triazine-2,4-diamine] |
| < 100 | 100 to 1000 | 100 to 1000 |  | FC(F)(F)c1cc(Nc2nc(Nc3cncs3)nc(-c3cccc(C(F)(F)F)n3)n2)ccn1 [Compound 546, N2-(thiazol-5-yl)-6-(6-(trifluoromethyl)pyridin-2-yl)-N4-(2-(trifluoromethyl)pyridin-4-yl)-1,3,5-triazine-2,4-diamine] |
| < 100 | 100 to 1000 | < 100 |  | FC(F)(F)c1cc(Nc2nc(NCC3CCOC3)nc(-c3cccc(C(F)(F)F)n3)n2)ccn1 (stereo not drawn) [Compound 547, N-(Tetrahydro-furan-3-ylmethyl)-N′-(2-trifluoromethyl-pyridin-4-yl)-6-(6-trifluoromethyl-pyridin-2-yl)-[1,3,5]triazine-2,4-diamine] |
| < 100 | 100 to 1000 | 100 to 1000 |  | CC(O)C(C)Nc1nc(Nc2ccnc(C(F)(F)F)c2)nc(-c2cccc(C(F)(F)F)n2)n1 (stereo not drawn) [Compound 548, 3-[4-(6-Trifluoromethyl-pyridin-2-yl)-6-(2-trifluoromethyl-pyridin-4-ylamino)-[1,3,5]triazin-2-ylamino]-butan-2-ol] |
| < 100 | 100 to 1000 | < 100 |  | CC1(Nc2nc(Nc3ccnc(C(F)(F)F)c3)nc(-c3cccc(C(F)(F)F)n3)n2)COC1 [Compound 549, N-(3-Methyl-oxetan-3-yl)-6-(6-trifluoromethyl-pyridin-2-yl)-N′-(2-trifluoromethyl-pyridin-4-yl)-[1,3,5]triazine-2,4-diamine] |
| < 100 | 100 to 1000 | < 100 |  | CC1(CNc2nc(Nc3ccnc(C(F)(F)F)c3)nc(-c3cccc(C(F)(F)F)n3)n2)COC1 [Compound 550, N-(3-Methyl-oxetan-3-ylmethyl)-6-(6-trifluoromethyl-pyridin-2-yl)-N′-(2-trifluoromethyl-pyridin-4-yl)-[1,3,5]triazine-2,4-diamine] |
| < 100 | 100 to 1000 | < 100 |  | CC(C)Nc1nc(Nc2ccnc(C(F)F)c2)nc(-c2cccc(C(F)(F)F)n2)n1 [Compound 551, N-(2-Difluoromethyl-pyridin-4-yl)-N′-isopropyl-6-(6-trifluoromethyl-pyridin-2-yl)-[1,3,5]triazine-2,4-diamine] |
| < 100 | 100 to 1000 | 100 to 1000 |  | CC(CO)CNc1nc(Nc2ccnc(C(F)(F)F)c2)nc(-c2cccc(C(F)(F)F)n2)n1 (stereo not drawn) [Compound 552, 2-Methyl-3-[4-(6-trifluoromethyl-pyridin-2-yl)-6-(2-trifluoromethyl-pyridin-4-ylamino)-[1,3,5]triazin-2-ylamino]-propan-1-ol] |
| < 100 | 100 to 1000 | 1000 to 10000 |  | CCCn1cc(Nc2nc(NC(C)C)nc(-c3cccc(C(F)(F)F)n3)n2)cn1 [Compound 555, N-Isopropyl-N′-(1-propyl-1H-pyrazol-4-yl)-6-(6-trifluoromethyl-pyridin-2-yl)-[1,3,5]triazine-2,4-diamine] |
| < 100 | 100 to 1000 | < 100 |  | FC(F)(F)c1cc(Nc2nc(NC3CC4CCC3O4)nc(-c3cccc(C(F)(F)F)n3)n2)ccn1 (stereo not drawn) [Compound 556, N-(7-Oxa-bicyclo[2.2.1]hept-2-yl)-6-(6-trifluoromethyl-pyridin-2-yl)-N′-(2-trifluoromethyl-pyridin-4-yl)-[1,3,5]triazine-2,4-diamine] |
